Laboratory results published in patent publication US8895623B2 (priority 2011, dated 2014).
Read-outs that look alike come from different tables or passages of the source.

What was measured:
[1] = rate of microsomal oxidation in vitro; format: in vitro ADME; conditions: hepatic microsomes
Excerpt: The probability of different routes of metabolic clearance in vivo can be investigated by estimating the rates of the underlying oxidation or conjugation reactions in vitro using sub-cellular fractions such as hepatic microsomes. Because the rate of microsomal oxidation of 3-[(1S,2S)-3-(dimethylamino)-1-ethyl-2-methylpropyl]phenol could be shown to be very low, it was considered that oxidative metabolism was unlikely to be a significant metabolic clearance route for this molecule.

[2] = oral bioavailability in humans; format: in vivo
Excerpt: The principal route of metabolic clearance of 3-[(1R,2R)-3-(dimethylamino)-1-ethyl-2-methylpropyl]phenol in most species, including humans, is glucuronidation, and this route was therefore considered to be very likely to be dominant for 3-[(1S,2S)-3-(dimethylamino)-1-ethyl-2-methylpropyl]phenol as well.

[3] = pharmacokinetics after intravenous administration in humans; format: in vivo; conditions: for initial plasma concentrations: after intravenous administrations of equal doses, comparison of enantiomers; for elimination halftime: in humans, intravenous administration
Procedure: On examination of the pharmacokinetics of the two compounds after intravenous administration, it became clear that the rate of elimination of 3-[(1S,2S)-3-(dimethylamino)-1-ethyl-2-methylpropyl]phenol was much higher than that of 3-[(1R,2R)-3-(dimethylamino)-1-ethyl-2-methylpropyl]phenol, and higher even than could be explained on clearance of the total hepatic blood flow. […] In fact, the elimination halftime of 3-[(1S,2S)-3-(dimethylamino)-1-ethyl-2-methylpropyl]phenol was ca. 0.75 h.

[4] = loss of compound on incubation in heparinised whole human blood; format: in vitro ADME; conditions: for loss of added compound: whole human blood
Excerpt: The remaining possibility was that the high clearance was due to a stereo-selective biochemical process occurring in blood itself. If true, then it would be expected that 3-[(1S,2S)-3-(dimethylamino)-1-ethyl-2-methylpropyl]phenol, but not 3-[(1R,2R)-3-(dimethylamino)-1-ethyl-2-methylpropyl]phenol, would be metabolised in a time-, concentration-, and temperature-dependent manner by whole human blood.
To test the hypothesis, blood was withdrawn from healthy volunteers, heparinised (final heparin concentration, 15 U/ml), and spiked with 1 μM 3-[(1S,2S)-3-(dimethylamino)-1-ethyl-2-methylpropyl]phenol or 3-[(1R,2R)-3-(dimethylamino)-1-ethyl-2-methylpropyl]phenol. It was mixed on a rotary mixer at 37° C. in closed test-tubes. The rate of loss of the added compounds was determined by taking aliquots at regular intervals, centrifuging at 5000 g for 5 minutes, and analysing the supernatant.
Supernatants were alkalinized by addition of aqueous 25% ammonia (50 μl/ml plasma), spiked with an internal standard, and extracted twice with tertiary butyl methyl ether (2 ml per ml plasma). The ether layers were combined and dried in a stream of nitrogen before being reconstituted in 150 μl chromatography buffer (see below).
All assay supernatants were analysed by reversed-phase HPLC on a Inertsil 5 ODS 2 column (250×4.6 mm). The HPLC system consisted of equipment from Dionex or Gynkotek. The auto-sampler was a GINA 50T unit (Gynkotek); the pump system was type P580A LPG (Gynkotek); the column was thermostatted at 30° C. using a SHT 585 unit (Gynkotek). Effluents were generally monitored for fluorescence emission at 300 nm after excitation at 215 nm using a RF 2000 detector (Dionex); the wavelengths for excitation and emission were chosen to be optimal for 3-[(1S,2S)-3-(dimethylamino)-1-ethyl-2-methylpropyl]phenol or 3-[(1R,2R)-3-(dimethylamino)-1-ethyl-2-methylpropyl]-phenol. Chromatograms were evaluated using Chromeleon software version 6.11 (Dionex).
Generally, the samples were eluted using an isocratic solvent mixture. Sodium pentane-sulphonate was dissolved at 1.92 g/l (10 mM)=PSS; perchloric acid (PA) was 60% w/v. A mixture containing 900 ml PSS, 210 ml methanol, 80 ml tetrahydrofuran, and 0.1 ml PA was made, allowed to stand overnight, and degassed prior to passage over the column. The effluent was passed first through the UV detector, and then into the fluorescence detector.

stability to plasma = format: in vitro ADME
Excerpt: Blood consists of plasma, plasma enzymes, and various blood cell types (erythrocytes, leukocytes, thrombocytes etc). 3-[(1S,2S)-3-(dimethylamino)-1-ethyl-2-methylpropyl]phenol was expected, and proven, to be stable to plasma. Of the blood cell types, thrombocytes (platelets) were expected to have the highest relevant enzymatic activity in SULT1A3, a sulphotransferase.

thrombocytes [5] = assay: incubation in thrombocyte-enriched plasma (sulphation by thrombocytes); format: in vitro ADME, human
Procedure: Thrombocyte (platelet-)enriched plasma can be prepared by centrifuging blood at 400 g for 10 minutes as this precipitates larger cells (erythrocytes, leukocytes).

male Sprague Dawley rats = assay: low intensity tail-flick test after intrathecal administration; format: in vivo, rat; conditions: intrathecal (i.t.) 3.15 μg/animal, 20 min p. appl., mean±s.e.m., n=10
Procedure: Antinociceptive effects of 3-[(1S,2S)-3-(dimethylamino)-1-ethyl-2-methylpropyl]-phenol were evaluated in the low intensity tail-flick test after local drug application into the spinal cord of rats.
160 male Sprague Dawley rats (200 to 260 g body weight) from a commercial breeder (Janvier, Le Genest St Isle, France) were housed under standardized conditions: light/dark rhythm (06.00-18.00 h light, 18.00-06.00 h dark); room temperature 20-24° C.; relative air humidity 35-70%; 15 air changes per hour, air movement <0.2 m/sec. The animals were given water and feedstuff designed for rats/mice/hamsters from Nohrlin (Bad Salzuflen, FRG) ad libitum. They were kept in groups of six in Makrolon cages type 4. There were at least 5 days between the day of delivery and the day of testing.
The experiments were performed using a Tail-flick device from Rhema-Labortechnik (Hofheim/Ts., FRG). Before and after drug application, a radiant heat beam was focused onto the dorsal surface of the rat's tail about 2 to 4 cm apart from the root. […] The latency from switching on the lamp to tail withdrawal was measured. […]
The individual latencies were calculated as the percentage of the Maximum Possible Effect (% MPE) according to the following formula: % MPE=(latency−VTM)/(30sec−VTM)*100% VTM: mean pre-test value, 30 sec: cut off value.
Data were expressed as mean±s.e.m. of the respective animal group.

thrombocytes [6] = assay: conjugation in thrombocytes in presence of biogenic amine transport inhibitors
[7] = in humans, known value; cited from earlier work

CC[C@H](c1cccc(O)c1)[C@H](C)CN(C)C [3-[(1S,2S)-3-(dimethylamino)-1-ethyl-2-methylpropyl]phenol]
rate of microsomal oxidation [1]: very low | oral bioavailability [2]: effectively zero | oral bioavailability or intravenous bioavailability [2]: no relevant oral bioavailability or intravenous bioavailability | initial plasma concentrations [3]: essentially identical | clearance relative to hepatic blood flow ([3]; humans, explains short elimination halftime): 5 fold the hepatic blood flow | elimination halftime [3]: ca. 0.75 h | concentration above which clearance process is saturable ([4]; whole blood, net losses sub-linear): above 2 μM | loss of added compound ([4]; 1 μM, 37° C., over one hour): 35% | loss of added compound ([4]; 6° C.): no loss | loss of added compound ([4]; room temperature (24° C.)): 7% | stability to plasma (stability to plasma): stable | Km (thrombocytes [5]; estimated from concentration dependency of the reaction rate, read-out: Km of the process): 3.5 µM | loss on incubation in thrombocyte-enriched plasma (thrombocytes [5]; thrombocyte-enriched plasma from a given volume of blood, compared with whole blood): equivalent to that observed on incubation in the original volume of whole blood | maximum antinociceptive effect (male Sprague Dawley rats): 59.71±2.94 % MPE | rate of conjugation in presence of transport inhibitors (thrombocytes [6]; cocaine 10 μM, nomifensin 10 μM, amphetamine 100 μM, fluoxetine 10 μM, desipramine 100 μM): influenced neither

CC[C@H](c1ccc[14c](O)c1)[C@H](C)CN(C)C [14C-3-[(1S,2S)-3-(dimethylamino)-1-ethyl-2-methylpropyl]phenol]
reaction products after incubation (thrombocytes [5]; whole blood or thrombocyte-enriched plasma, eluted identically to synthetic sulphate on HPLC): only a single reaction product

CC[C@H](c1cccc(OS(=O)(=O)O)c1)[C@H](C)CN(C)C [3-[(1S,2S)-3-(dimethylamino)-1-ethyl-2-methylpropyl]phenol-sulphate]
accumulation in pelleted thrombocytes (thrombocytes [6]; under any condition): no accumulation

CC[C@@H](c1cccc(O)c1)[C@@H](C)CN(C)C [(-)-(1R,2R)-3-(3-dimethylamino-1-ethyl-2-methyl-propyl)-phenol, reference compound]
rate of microsomal oxidation [1]: similarly low | initial plasma concentrations [3]: essentially identical | elimination halftime [3]: ca. 3.2 h | loss of added compound ([4]; 1 μM, 37° C., over one hour): No loss | oral bioavailability [7]: ca. 33%
